{
  "source": "paper PMC6131351",
  "about": "“Pharmacological difference between degrader and inhibitor against oncogenic BCR-ABL kinase” (Scientific Reports, 2018)",
  "molecules": {"B1": {"name": "FITC-labeled Smac peptide (FITC-Smac, AVPIAQK(5-FAM)-NH2) (peptide)", "peptide": "AVPIAQK(5FAM)-NH2", "modifications": "N-terminus assumed", "SMILES": "CC[C@H](C)[C@H](NC(=O)[C@@H]1CCCN1C(=O)[C@@H](NC(=O)[C@H](C)N)C(C)C)C(=O)N[C@@H](C)C(=O)N[C@@H](CCC(N)=O)C(=O)N[C@@H](CCCCNC(=O)c1ccc2c(c1)C(=O)OC21c2ccc(O)cc2Oc2cc(O)ccc21)C(N)=O", "notes": "N-terminal stretch of mature Smac (DIABLO); Fluorescent probe of the TR-FRET assay; source: synthetic peptide (synthesized in Scrum, Tokyo)"}},
  "key": {"BCR-ABL protein": {"target": "T1, BCR-ABL protein (Homo sapiens, UniProt P00519+P11274)", "T1 construct": "examined for their activity to degrade BCR-ABL in K562 cells for 6 h; BCR (fusion partner, P11274, N-terminal part); endogenous in cells; host or cells: K562", "T1 sequence (P11274+P00519 fused)": "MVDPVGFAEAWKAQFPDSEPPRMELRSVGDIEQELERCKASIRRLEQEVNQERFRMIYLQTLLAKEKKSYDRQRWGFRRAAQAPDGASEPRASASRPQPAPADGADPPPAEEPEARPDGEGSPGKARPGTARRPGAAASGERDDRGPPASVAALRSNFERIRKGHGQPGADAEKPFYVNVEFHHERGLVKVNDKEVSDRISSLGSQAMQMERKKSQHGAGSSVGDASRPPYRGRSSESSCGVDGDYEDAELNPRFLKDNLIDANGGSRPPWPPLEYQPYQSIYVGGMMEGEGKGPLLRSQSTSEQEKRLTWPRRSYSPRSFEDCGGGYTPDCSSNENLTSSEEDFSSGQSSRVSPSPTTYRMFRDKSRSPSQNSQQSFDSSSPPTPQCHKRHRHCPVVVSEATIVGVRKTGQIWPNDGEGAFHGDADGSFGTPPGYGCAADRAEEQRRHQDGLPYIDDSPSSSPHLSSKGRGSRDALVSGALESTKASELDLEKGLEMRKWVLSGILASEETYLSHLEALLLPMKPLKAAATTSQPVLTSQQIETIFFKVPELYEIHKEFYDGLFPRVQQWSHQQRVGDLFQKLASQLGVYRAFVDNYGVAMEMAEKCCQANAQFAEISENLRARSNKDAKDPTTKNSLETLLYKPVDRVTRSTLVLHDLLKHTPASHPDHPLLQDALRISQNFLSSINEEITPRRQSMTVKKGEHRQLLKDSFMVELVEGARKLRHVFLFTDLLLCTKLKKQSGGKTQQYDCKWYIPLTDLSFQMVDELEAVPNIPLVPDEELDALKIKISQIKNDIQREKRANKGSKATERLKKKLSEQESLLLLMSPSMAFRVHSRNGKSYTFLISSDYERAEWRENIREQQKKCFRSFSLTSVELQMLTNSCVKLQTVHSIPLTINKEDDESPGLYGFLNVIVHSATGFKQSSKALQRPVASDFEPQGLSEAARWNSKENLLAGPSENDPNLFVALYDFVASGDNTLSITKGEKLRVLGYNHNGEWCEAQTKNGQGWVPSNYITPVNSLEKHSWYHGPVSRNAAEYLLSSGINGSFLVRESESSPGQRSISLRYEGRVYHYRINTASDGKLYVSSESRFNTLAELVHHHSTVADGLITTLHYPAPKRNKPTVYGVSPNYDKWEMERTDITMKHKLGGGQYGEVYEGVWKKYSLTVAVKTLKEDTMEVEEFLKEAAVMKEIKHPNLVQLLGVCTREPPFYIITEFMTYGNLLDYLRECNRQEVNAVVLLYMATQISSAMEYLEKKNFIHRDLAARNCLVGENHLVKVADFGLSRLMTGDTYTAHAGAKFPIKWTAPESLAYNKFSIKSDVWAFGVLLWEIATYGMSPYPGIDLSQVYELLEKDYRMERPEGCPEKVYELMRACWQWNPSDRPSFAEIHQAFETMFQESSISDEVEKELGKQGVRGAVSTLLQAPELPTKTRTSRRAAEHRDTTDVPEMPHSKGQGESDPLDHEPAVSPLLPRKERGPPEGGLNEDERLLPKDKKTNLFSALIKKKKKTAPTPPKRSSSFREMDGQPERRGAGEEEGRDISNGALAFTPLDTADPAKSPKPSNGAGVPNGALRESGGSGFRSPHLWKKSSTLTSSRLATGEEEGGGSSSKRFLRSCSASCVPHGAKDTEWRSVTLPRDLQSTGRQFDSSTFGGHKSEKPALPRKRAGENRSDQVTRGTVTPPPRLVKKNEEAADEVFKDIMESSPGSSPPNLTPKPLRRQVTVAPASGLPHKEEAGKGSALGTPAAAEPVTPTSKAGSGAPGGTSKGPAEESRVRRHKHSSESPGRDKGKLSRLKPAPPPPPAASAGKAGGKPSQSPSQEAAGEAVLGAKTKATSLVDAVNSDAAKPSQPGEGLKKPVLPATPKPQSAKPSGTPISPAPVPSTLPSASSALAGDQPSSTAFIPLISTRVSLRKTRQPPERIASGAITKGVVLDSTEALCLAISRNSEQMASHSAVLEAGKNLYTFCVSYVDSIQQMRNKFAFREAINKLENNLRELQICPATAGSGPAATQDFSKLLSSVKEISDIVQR", "assay": "Protein knockdown by western blot in K562 cells", "format": "cell-based", "conditions": "6 h, 1-300 nM", "method": "(§1) Cells were collected and lysed in a lysis buffer (0.5% Triton X-100, 0.01 M Tris-HCl (pH 7.5), 0.15 M NaCl, Complete Mini protease inhibitor cocktail (Roche Applied Science, Indianapolis, IL, USA) and PhosStop phosphatase inhibitor cocktail (Roche Applied Science)). Protein concentrations were measured by the BCA method (Thermo Fisher Scientific) and an equal amount of protein lysate was separated by SDS-PAGE, transferred to polyvinylidene difluoride membranes (Merck Millipore) and analyzed by western blot using an appropriate antibody. The immunoreactive proteins were visualized using Clarity Western ECL substrate (Bio-Rad, Hercules, CA, USA) and their light emission was quantified with a LAS-3000 lumino-image analyzer (Fuji, Tokyo, Japan)."}, "K562 cells [1]": {"tested_on": "K562 cells", "assay": "Washout experiment, cell counting of K562 cells", "format": "cell-based, Human", "conditions": "25 or 50 times IC50 for 12 h, washed, drug-free medium for 6 d", "method": "(§2) Cells were seeded at a concentration of 2 × 10^6 cells per 10-cm tissue culture dish and treated with the indicated compounds for the indicated times. Then, the cells were washed three times to remove the compounds, and incubated in drug-free medium for the indicated times."}, "[2]": {"tested_on": "caspase 3 activation and PARP cleavage", "assay": "Caspase activation and PARP cleavage after drug removal in K562 cells", "format": "cell-based, Human", "method": "as §1, with “Japan). The following antibodies were used: anti-cAbl rabbit polyclonal antibody (pAb) (#2862), anti-XIAP rabbit pAb (#2042), anti-phospho-cAbl rabbit pAb (#3009), anti-STAT5 rabbit pAb (#9363), anti-phospho-STAT5 rabbit pAb (#9359), anti-CrkL mouse monoclonal antibody (mAb) (#3182) and anti-phospho-CrkL rabbit pAb (#3181), anti-PARP rabbit pAb (#9532), and anti-cleaved Caspase 3 rabbit pAb (#9664) (Cell Signaling Technology, Danvers, MA, USA); anti-β-tubulin (ab6046) rabbit pAb (Abcam, Cambridge, UK) and anti-GAPDH rabbit pAb (sc-25778 HRP) (Santa Cruz, Dallas, TX, USA); anti-cIAP1 goat pAb (AF8181) (R&D systems).” for “Japan).”\nas §2"}, "K562 cells [3]": {"tested_on": "K562 cells", "assay": "WST cell growth inhibition, K562", "format": "cell-based, Human", "conditions": "48 h", "method": "(§3) Human CML (K562 and KU812 cells), acute T-lymphoblast leukemia (MOLT-4 cell), and T cell leukemia (Jurkat cell) were cultured in Roswell Park Memorial Institute-1640 medium (Sigma-Aldrich, St. Louis, MO, USA) containing 10% fetal bovine serum (Thermo Fisher Scientific, Waltham, MA, USA) and 50 μg/ml kanamycin (Sigma-Aldrich). KU812 cells were obtained from Japanese Collection of Research Bioresources (JCRB, Osaka, Japan) Cell Bank (JCRB0104)[58].\n(§4) Cell viability was determined using water-soluble tetrazolium WST-8 (4-[3-(2-methoxy-4-nitrophenyl)-2-(4-nitrophenyl)-2H-5-tetrazolio]-1,3-benzene disulfonate) for the spectrophotometric assay and conducted according to the manufacturer’s instructions (Dojindo, Tokyo, Japan). Cells were seeded at a concentration of 5 × 10^3 cells per well in a 96-well culture plate, and treated with the indicated compounds for 48 h. The WST-8 reagent was added, and the cells were incubated for 0.5 h at 37 °C in a humidified atmosphere of 5% CO2. The absorbance at 450 nm of the medium was measured using the EnVision Multilabel Plate Reader."}, "KU812 cells": {"tested_on": "KU812 cells", "assay": "WST cell growth inhibition, KU812", "format": "cell-based", "conditions": "Homo sapiens, 48 h, WST assay, means ± SD (n = 3)", "method": "as §3, §4"}, "[4]": {"tested_on": "phosphorylation of BCR-ABL, STAT5 and CrkL", "assay": "Downstream kinase signaling (phosphorylation) by western blot in K562 cells", "format": "cell-based, Human", "method": "as §1, with “Japan). The following antibodies were used: anti-cAbl rabbit polyclonal antibody (pAb) (#2862), anti-XIAP rabbit pAb (#2042), anti-phospho-cAbl rabbit pAb (#3009), anti-STAT5 rabbit pAb (#9363), anti-phospho-STAT5 rabbit pAb (#9359), anti-CrkL mouse monoclonal antibody (mAb) (#3182) and anti-phospho-CrkL rabbit pAb (#3181), anti-PARP rabbit pAb (#9532), and anti-cleaved Caspase 3 rabbit pAb (#9664) (Cell Signaling Technology, Danvers, MA, USA); anti-β-tubulin (ab6046) rabbit pAb (Abcam, Cambridge, UK) and anti-GAPDH rabbit pAb (sc-25778 HRP) (Santa Cruz, Dallas, TX, USA); anti-cIAP1 goat pAb (AF8181) (R&D systems).” for “Japan).”\nas §2"}, "[5]": {"target": "T2, recombinant His-tagged human cIAP2 (BIR3, Gln238-Ser349) (human, UniProt Q13489 238-349)", "T2 construct": "cIAP2, human, BIR3 domain, residues Gln238-Ser349; also called His-IAP proteins; source: E. coli, purified (Ni-NTA column, gel filtration chromatography)", "T2 sequence (Q13489 238-349)": "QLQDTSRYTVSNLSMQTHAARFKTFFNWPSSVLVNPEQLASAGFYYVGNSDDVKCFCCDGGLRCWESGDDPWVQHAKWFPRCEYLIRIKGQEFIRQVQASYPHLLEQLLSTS", "assay": "AlphaScreen or HTRF; TR-FRET competition assay: 0.6 nM His-IAP BIR3 held by biotinylated anti-His antibody and terbium-streptavidin, FITC-Smac probe (27 nM for XIAP, 12 nM for cIAP1, 19 nM for cIAP2), small-molecule test compounds as competitors; 50 mM HEPES pH 7.2-7.5, 10 mM MgCl2, 1 mM EGTA, 0.1 mM DTT, 0.01% Brij 35; room temperature", "conditions": "both partners purified"}, "[6]": {"target": "T3, recombinant His-tagged human cIAP1 (BIR3, Leu250-Gly350) (human, UniProt Q13490 250-350)", "T3 construct": "cIAP1, human, BIR3 domain, residues Leu250-Gly350; also called His-IAP proteins; source: E. coli, purified (Ni-NTA column, gel filtration chromatography)", "T3 sequence (Q13490 250-350)": "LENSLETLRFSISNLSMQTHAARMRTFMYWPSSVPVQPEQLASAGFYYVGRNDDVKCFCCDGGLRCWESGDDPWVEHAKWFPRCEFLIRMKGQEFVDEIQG", "assay": "AlphaScreen or HTRF; TR-FRET competition assay: 0.6 nM His-IAP BIR3 held by biotinylated anti-His antibody and terbium-streptavidin, FITC-Smac probe (27 nM for XIAP, 12 nM for cIAP1, 19 nM for cIAP2), small-molecule test compounds as competitors; 50 mM HEPES pH 7.2-7.5, 10 mM MgCl2, 1 mM EGTA, 0.1 mM DTT, 0.01% Brij 35; room temperature", "conditions": "both partners purified"}, "[7]": {"target": "T4, recombinant His-tagged human XIAP (BIR3, Asn252-Thr356) (human, UniProt P98170 252-356)", "T4 construct": "XIAP, human, BIR3 domain, residues Asn252-Thr356; also called His-IAP proteins; source: bought: R&D Systems (895-XB-050)", "T4 sequence (P98170 252-356)": "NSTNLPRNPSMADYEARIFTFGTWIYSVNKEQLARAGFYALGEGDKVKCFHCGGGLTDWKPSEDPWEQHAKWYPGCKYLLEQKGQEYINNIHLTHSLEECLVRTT", "assay": "AlphaScreen or HTRF; TR-FRET competition assay: 0.6 nM His-IAP BIR3 held by biotinylated anti-His antibody and terbium-streptavidin, FITC-Smac probe (27 nM for XIAP, 12 nM for cIAP1, 19 nM for cIAP2), small-molecule test compounds as competitors; 50 mM HEPES pH 7.2-7.5, 10 mM MgCl2, 1 mM EGTA, 0.1 mM DTT, 0.01% Brij 35; room temperature", "conditions": "both partners purified"}},
  "note": "Residues, ends and D or L forms follow the SMILES beside them. No end group written: not given here. *: point of attachment. 5FAM = O=C1OC2(c3ccc(O)cc3Oc3cc(O)ccc32)c2ccc(C(=O)*)cc21; Cbz = O=C(OCc1ccccc1)*; CH2F = FC*",
  "data": [
    {"molecule": "Cc1nc(Nc2ncc(C(=O)Nc3c(C)cccc3Cl)s2)cc(N2CCN(C(=O)COCCOCCOCC(=O)N[C@H](C(=O)N3C[C@H](O)C[C@H]3C(=O)NCc3ccc(-c4scnc4C)cc3)C(C)(C)C)CC2)n1", "note": "[DAS-VHL]", "values": [
      {"measurement": "knockdown activity against the BCR-ABL protein", "setting": "BCR-ABL protein", "result": "negligible activity"}
    ]},
    {"molecule": "Cc1nc(Nc2ncc(C(=O)Nc3c(C)cccc3Cl)s2)cc(N2CCN(CCO)CC2)n1", "note": "[Dasatinib, dasatinib, reference compound]", "values": [
      {"measurement": "growth of K562 cells after drug removal", "setting": "K562 cells [1]", "result": "slightly delayed the growth"},
      {"measurement": "caspase 3 activation and PARP cleavage", "setting": "[2]; K562, 50 times IC50 for 12 h, drug removal for 24 h", "result": "not"},
      {"measurement": "times more active than DAS-IAP to inhibit CML cell growth", "setting": "K562 cells [3]", "result": 100, "unit": "times"},
      {"measurement": "IC50", "setting": "K562 cells [3]; Homo sapiens, WST assay, means ± SD (n = 3)", "result": "79.3 ± 3.7", "unit": "pM"},
      {"measurement": "IC50", "setting": "KU812 cells", "result": "44.8 ± 0.5", "unit": "pM"},
      {"measurement": "phosphorylation of BCR-ABL, STAT5 and CrkL", "setting": "[4]; K562, 50 times IC50 for 12 h (time 0)", "result": "inhibited"},
      {"measurement": "phosphorylation of BCR-ABL, STAT5 and CrkL", "setting": "[4]; K562 cells, 6 h", "result": "suppressed"}
    ]},
    {"molecule": "CCN1CCN(Cc2ccc(NC(=O)c3cccc(-c4ccc5nc(NC(=O)COCCOCCOCCOc6cccc(C(=O)c7csc([C@@H]8CCCN8C(=O)[C@@H](NC(=O)[C@H](C)NC)C8CCCCC8)n7)c6)sc5n4)c3)cc2C(F)(F)F)CC1", "note": "[HG-IAP]", "values": [
      {"measurement": "knockdown activity against the BCR-ABL protein", "setting": "BCR-ABL protein", "result": "weak"}
    ]},
    {"molecule": "CCN1CCN(Cc2ccc(NC(=O)c3cccc(-c4ccc5nc(NC(=O)COCCOCCOCC(=O)N[C@H](C(=O)N6C[C@H](O)C[C@H]6C(=O)NCc6ccc(-c7scnc7C)cc6)C(C)(C)C)sc5n4)c3)cc2C(F)(F)F)CC1", "note": "[HG-VHL]", "values": [
      {"measurement": "knockdown activity against the BCR-ABL protein", "setting": "BCR-ABL protein", "result": "effective protein knockdown activity"},
      {"measurement": "suppression of K562 cell growth (comparison)", "setting": "K562 cells [3]; WST assay", "result": "more potent suppression of the growth of K562 cells than HG-IAP and HG-CRBN"}
    ]},
    {"molecule": "COC(=O)C[C@H](NC(=O)[C@H](C)NC(=O)[C@@H](NC(=O)OCc1ccccc1)C(C)C)C(=O)CF", "note": "[zVAD-FMK, reference compound] (Cbz-Val-Ala-Asp(OMe)-CH2F)", "values": [
      {"measurement": "effect on caspase activation and PARP cleavage by DAS-IAP", "setting": "[2]; K562, after DAS-IAP pulse and drug removal, 24 h", "result": "abrogated"}
    ]},
    {"molecule": "B1", "values": [
      {"measurement": "binding result", "setting": "[5]", "result": "binds"},
      {"measurement": "binding result", "setting": "[6]", "result": "binds"},
      {"measurement": "binding result", "setting": "[7]", "result": "binds"}
    ]}
  ]
}
